{"source": "ChEMBL document CHEMBL3885881", "about": "“DrugMatrix”", "species_on_record": "Rattus norvegicus", "assay": "DrugMatrix - Regimen: Daily Repeat", "format": "toxicity, organism-based, Sprague-Dawley", "set-up": "regimen Daily Repeat, gender Male, age 6-8 weeks", "conditions": "in vivo, po, 0 mg/kg, route oral GAVAGE, dose level Control, vehicle 100 % WATER; for ALANINE AMINOTRANSFERASE / ALBUMIN / ALKALINE PHOSPHATASE / ASPARTATE AMINOTRANSFERASE / BLOOD UREA NITROGEN / CARBON DIOXIDE / CHLORIDE / CHOLESTEROL / CREATINE PHOSPHOKINASE / CREATININE / GLUCOSE / LACTATE DEHYDROGENASE / LIPASE / PHOSPHORUS / POTASSIUM / SODIUM / TOTAL BILIRUBIN / TOTAL PROTEIN / URIC ACID: tissue Plasma", "key": {"[1]": {"conditions": "120 h, tissue Blood, time 5 day"}}, "note": "Values joined by “and” are separate entries in the source; they are usually repeats but may differ in a detail not shown here. Equal values may be shown once.", "data": [{"smiles": "COCCc1ccc(OCC(O)CNC(C)C)cc1", "note": "(configuration not stated) [METOPROLOL]", "values": [{"measurement": "ABSOLUTE SEGMENTED NEUTROPHIL", "setting": "72 h, tissue Blood, time 3 day", "value": 1139.67, "unit": "CELLS/uL"}, {"measurement": "BASOPHIL", "setting": "72 h, tissue Blood, time 3 day", "value": "1.07% and 0%"}, {"measurement": "EOSINOPHIL", "setting": "72 h, tissue Blood, time 3 day", "value": "1.03% and 0.83%"}, {"measurement": "ERYTHROCYTE COUNT", "setting": "72 h, tissue Blood, time 3 day", "value": "5.88 x10E6/uL and 5.54 x10E6/uL"}, {"measurement": "HEMATOCRIT", "setting": "72 h, tissue Blood, time 3 day", "value": "38.37% and 35.35%"}, {"measurement": "HEMOGLOBIN", "setting": "72 h, tissue Blood, time 3 day", "value": "12.5 G/DL and 13.22 G/DL"}, {"measurement": "LEUKOCYTE COUNT", "setting": "72 h, tissue Blood, time 3 day", "value": "11.61 x10E3/uL and 12 x10E3/uL"}, {"measurement": "LYMPHOCYTE", "setting": "72 h, tissue Blood, time 3 day", "value": "74.4% and 89%"}, {"measurement": "MEAN CORPUSCULAR HEMOGLOBIN", "setting": "72 h, tissue Blood, time 3 day", "value": "21.23 pg and 23.88 pg"}, {"measurement": "MEAN CORPUSCULAR HEMOGLOBIN CONCENTRATION", "setting": "72 h, tissue Blood, time 3 day", "value": "32.5 G/DL and 37.4 G/DL"}, {"measurement": "MEAN CORPUSCULAR VOLUME", "setting": "72 h, tissue Blood, time 3 day", "value": "65.47 fL and 63.85 fL"}, {"measurement": "MONOCYTE", "setting": "72 h, tissue Blood, time 3 day", "value": "2.73% and 1%"}, {"measurement": "NEUTROPHIL", "setting": "72 h, tissue Blood, time 3 day", "value": "20.17% and 9.17%"}, {"measurement": "NUCLEATED RED BLOOD CELLS", "setting": "72 h, tissue Blood, time 3 day", "value": "0 /100WBC"}, {"measurement": "PLATELET COUNT", "setting": "72 h, tissue Blood, time 3 day", "value": "1067 x10E3/uL and 1333.33 x10E3/uL"}, {"measurement": "ALANINE AMINOTRANSFERASE", "setting": "72 h, time 3 day", "value": "35.33 u/L and 53.17 u/L"}, {"measurement": "ALBUMIN", "setting": "72 h, time 3 day", "value": "3.83 G/DL and 4.32 G/DL"}, {"measurement": "ALKALINE PHOSPHATASE", "setting": "72 h, time 3 day", "value": "469.67 u/L and 404.33 u/L"}, {"measurement": "ASPARTATE AMINOTRANSFERASE", "setting": "72 h, time 3 day", "value": "65.33 u/L and 83.17 u/L"}, {"measurement": "BLOOD UREA NITROGEN", "setting": "72 h, time 3 day", "value": "16.33 mg/dL and 15.67 mg/dL"}, {"measurement": "CARBON DIOXIDE", "setting": "72 h, time 3 day", "value": "44.67 mmol/L and 27.33 mmol/L"}, {"measurement": "CHLORIDE", "setting": "72 h, time 3 day", "value": "102 MEQ/L and 101.83 MEQ/L"}, {"measurement": "CHOLESTEROL", "setting": "72 h, time 3 day", "value": "71.33 mg/dL and 68.67 mg/dL"}, {"measurement": "CREATINE PHOSPHOKINASE", "setting": "72 h, time 3 day", "value": "256.67 u/L and 276.17 u/L"}, {"measurement": "CREATININE", "setting": "72 h, time 3 day", "value": "0.4 mg/dL and 0.18 mg/dL"}, {"measurement": "GLUCOSE", "setting": "72 h, time 3 day", "value": "165 mg/dL and 163.5 mg/dL"}, {"measurement": "LACTATE DEHYDROGENASE", "setting": "72 h, time 3 day", "value": "114.33 u/L and 144.67 u/L"}, {"measurement": "LIPASE", "setting": "72 h, time 3 day", "value": "16 u/L and 8.83 u/L"}, {"measurement": "PHOSPHORUS", "setting": "72 h, time 3 day", "value": "10.7 mg/dL and 11.72 mg/dL"}, {"measurement": "POTASSIUM", "setting": "72 h, time 3 day", "value": "6.87 MEQ/L and 5.99 MEQ/L"}, {"measurement": "SODIUM", "setting": "72 h, time 3 day", "value": "143 MEQ/L and 143.57 MEQ/L"}, {"measurement": "TOTAL BILIRUBIN", "setting": "72 h, time 3 day", "value": "0.4 mg/dL and 0.2 mg/dL"}, {"measurement": "TOTAL PROTEIN", "setting": "72 h, time 3 day", "value": "6.37 G/DL and 6.1 G/DL"}, {"measurement": "URIC ACID", "setting": "72 h, time 3 day", "value": "0.87 mg/dL and 1.38 mg/dL"}, {"measurement": "ABSOLUTE SEGMENTED NEUTROPHIL", "setting": "[1]", "value": 1137.17, "unit": "CELLS/uL"}, {"measurement": "BASOPHIL", "setting": "[1]", "value": "0.57% and 0%"}, {"measurement": "EOSINOPHIL", "setting": "[1]", "value": "1.33% and 1.67%"}, {"measurement": "ERYTHROCYTE COUNT", "setting": "[1]", "value": "6.38 x10E6/uL and 5.82 x10E6/uL"}, {"measurement": "HEMATOCRIT", "setting": "[1]", "value": "42.13% and 36.35%"}, {"measurement": "HEMOGLOBIN", "setting": "[1]", "value": "13.6 G/DL and 13.58 G/DL"}, {"measurement": "LEUKOCYTE COUNT", "setting": "[1]", "value": "13.38 x10E3/uL and 14.38 x10E3/uL"}, {"measurement": "LYMPHOCYTE", "setting": "[1]", "value": "81.03% and 90.5%"}, {"measurement": "MEAN CORPUSCULAR HEMOGLOBIN", "setting": "[1]", "value": "21.27 pg and 23.32 pg"}, {"measurement": "MEAN CORPUSCULAR HEMOGLOBIN CONCENTRATION", "setting": "[1]", "value": "32.27 G/DL and 37.42 G/DL"}, {"measurement": "MEAN CORPUSCULAR VOLUME", "setting": "[1]", "value": "66 fL and 62.42 fL"}, {"measurement": "MONOCYTE", "setting": "[1]", "value": "2% and 0.17%"}, {"measurement": "NEUTROPHIL", "setting": "[1]", "value": "14.33% and 7.67%"}, {"measurement": "NUCLEATED RED BLOOD CELLS", "setting": "[1]", "value": "0 /100WBC"}, {"measurement": "PLATELET COUNT", "setting": "[1]", "value": "1279.33 x10E3/uL and 1337.67 x10E3/uL"}, {"measurement": "ALANINE AMINOTRANSFERASE", "setting": "120 h, time 5 day", "value": "29 u/L and 48.5 u/L"}, {"measurement": "ALBUMIN", "setting": "120 h, time 5 day", "value": "3.8 G/DL and 4.32 G/DL"}, {"measurement": "ALKALINE PHOSPHATASE", "setting": "120 h, time 5 day", "value": "440.33 u/L and 354.33 u/L"}, {"measurement": "ASPARTATE AMINOTRANSFERASE", "setting": "120 h, time 5 day", "value": "61.33 u/L and 80 u/L"}, {"measurement": "BLOOD UREA NITROGEN", "setting": "120 h, time 5 day", "value": "15.67 mg/dL and 16 mg/dL"}, {"measurement": "CARBON DIOXIDE", "setting": "120 h, time 5 day", "value": "44.67 mmol/L and 27.33 mmol/L"}, {"measurement": "CHLORIDE", "setting": "120 h, time 5 day", "value": "102 MEQ/L and 100.33 MEQ/L"}, {"measurement": "CHOLESTEROL", "setting": "120 h, time 5 day", "value": "59.67 mg/dL and 68 mg/dL"}, {"measurement": "CREATINE PHOSPHOKINASE", "setting": "120 h, time 5 day", "value": "184.33 u/L and 325.17 u/L"}, {"measurement": "CREATININE", "setting": "120 h, time 5 day", "value": "0.3 mg/dL and 0.23 mg/dL"}, {"measurement": "GLUCOSE", "setting": "120 h, time 5 day", "value": "180 mg/dL and 172 mg/dL"}, {"measurement": "LACTATE DEHYDROGENASE", "setting": "120 h, time 5 day", "value": "88.33 u/L and 254.83 u/L"}, {"measurement": "LIPASE", "setting": "120 h, time 5 day", "value": "8 u/L and 8.33 u/L"}, {"measurement": "PHOSPHORUS", "setting": "120 h, time 5 day", "value": "10.73 mg/dL and 12.17 mg/dL"}, {"measurement": "POTASSIUM", "setting": "120 h, time 5 day", "value": "6.5 MEQ/L and 6.28 MEQ/L"}, {"measurement": "SODIUM", "setting": "120 h, time 5 day", "value": "145.67 MEQ/L and 143.57 MEQ/L"}, {"measurement": "TOTAL BILIRUBIN", "setting": "120 h, time 5 day", "value": "0.3 mg/dL and 0.18 mg/dL"}, {"measurement": "TOTAL PROTEIN", "setting": "120 h, time 5 day", "value": "6.3 G/DL and 6.12 G/DL"}, {"measurement": "URIC ACID", "setting": "120 h, time 5 day", "value": "0.8 mg/dL and 1.78 mg/dL"}, {"measurement": "ABSOLUTE BASOPHIL", "setting": "[…], tissue Blood, time 14 day", "value": 130, "unit": "cells/µL"}, {"measurement": "ABSOLUTE EOSINOPHIL", "setting": "[…], tissue Blood, time 14 day", "value": 60, "unit": "cells/µL"}, {"measurement": "ABSOLUTE LYMPHOCYTE", "setting": "[…], tissue Blood, time 14 day", "value": 9510, "unit": "cells/µL"}, {"measurement": "ABSOLUTE MONOCYTE", "setting": "[…], tissue Blood, time 14 day", "value": 270, "unit": "cells/µL"}]}]}
